Columns and labels:
[1] = Iodonium catalyst solubility studies: time to dissolve to a clear solution at 70° C.; conditions: Comparison 2: 3 parts by weight catalyst in 100 parts PC-1000 (epoxy siloxane monomer); 2.9 wt. % solution
[2] = Solution stability of catalyst solutions on storage at 25° C.; type: physicochemical; conditions: Comparison 3: 40 parts catalyst in 60 parts ERL 4221E; listed as iodotoluene catalyst

For CCCCCCCCCCCCC(O)COc1ccc([I+]c2ccc(C)cc2)cc1 (centres unmarked) [PCX-2519, [4-(2-hydroxy-1-tetradecyloxy)-phenyl] 4-methylphenyliodonium hexafluorophosphate], the “Time @ 70° C. (for clear solution)” value [1] was “half and ½ hr” and the “Solution Stability (after 14 days @ 25° C.)” value [2] was “remained stable and clear”.

From patent US6632960B2, “Diaryliodonium salt catalysts made from iodotoluene and a method for preparing them” (Goldschmidt AG, priority 2002, dated 2003)
